Laboratory results reported in patent US20220296535A1, “Antibacterial Dosage Regime Using Cannabinoids” (Botanix Pharmaceuticals Limited, priority 2019, published 2022).
In brackets after ≈: the same amount, converted by molar mass. Several values for one entry are separate records, joined by “and”; a condition that tells them apart may be missing. Equal values may be shown once. Read-outs that look alike come from different tables or passages of the source.

What was measured:
[1] = tested on: Staphylococcus aureus ATCC 43300; assay: Broth MIC (Example 1); assay type: cell-based; conditions: Staphylococcus aureus
Protocol: The collaborator supplied sample as dry material. A stock solution at 10 mg/mL in neat DMSO (11.2 mg in 1.12 mL of DMSO) was prepared. The highest concentration tested in the assay was 128 μg/mL and 2% DMSO as a final concentration using 1/20 dilution to achieve these concentrations.

[2] = tested on: Staphylococcus aureus ATCC 43300 MRSA; assay: Forced evolution of resistance, 20 days serial passage and drug-free passages; assay type: cell-based; conditions: for MIC: Staphylococcus aureus
Protocol: The collaborator supplied sample as dry material. A stock solution at 10 mg/mL in neat DMSO was prepared.
The tested bacteria was Staphylococcus aureus ATCC 43300 MRSA (ID GP_020:02).
The mid log Staphylococcus aureus (ATCC 43300) growth culture was serially diluted and plated on a solid Tryptic Soy Agar (TSA) plates in duplicates and incubated at 37° C. overnight to determine viable colony count.
Staphylococcus aureus (ATCC 43300) was cultured in CaMHB at 37° C. overnight, then diluted 40-fold and incubated at 37° C. for a further 2-3 h. […] The plate was covered and incubated at 37° C. for 20 h.
Plate well with the highest drug concentration that permitted growth was then diluted. Despite plates were read by eye, reading at OD600 on the Epoch microplate spectrophotometer was used to adjust growth density of each well (it was approximately 1:1000). Then, 100 μL of the bacteria diluted was added to the new MIC plate. The OD600 was used to calculate the dilution of cells to a density of 10^6 CFU/mL. Bacteria were diluted in CaMHB and 100 μL was added to each well of the next replicate passage. The final well volume was 200 μL with a cell density of 5×10^5 CFU/mL. Each replicate (row) was assess as different strain, for this reason the dilution was done for each replicate.
Once prepared, the plate was covered and incubated at 37° C. overnight. Plate reading, compound preparation and bacterial preparation were repeated from Day 2 to Day 20.
Depending on the MIC of the day before, CBD tested concentrations were established.
Depending on the MIC of the day before, CBD and daptomycin tested concentrations were established to ensure at least three concentrations above, and three concentrations below MIC, based on the previous MIC results. Compounds were prepared in Protein LoBind Eppendorf 1.5 mL safelock tubes, diluting 320 μg/mL stock in DMSO in CaMHB to achieve two-fold the desired testing concentrations. The 100 μL of the selected concentration were added to each well (See FIG. 1). […] It was incubated at 37° C. overnight. Next day the same procedure was repeated.
Following 20 days of passaging in the presence of CBD and daptomycin, each replicate was passaged for 4 days in drug-free media to assess the stability of any induced resistance.
Day 20 plate was read and the same bacterial preparation methodology was followed. Same concentrations used in day 20 for CBD were used for the 4 days drug free passages. […] These concentrations were used for the 4 days drug free passages. Column 11 was used as the drug-free passage well, and column 12 as a negative growth control with 200 μL uninoculated media in each well. Diluted bacteria were added to the plate, one replicate per row, 100 μL per well. The final well volume was 200 μL with a cell density of 5×10^5 CFU/mL in columns 1-11, and CBD concentration range from 16-0.03 μg/mL in columns 1-10 (FIG. 2).
Subsequent drug-free passage plates were prepared in the same manner, except each replicate bacteria was passaged from column 11, the drug-free growth control well.
Alongside the test plate, a culture of S. aureus was passaged for 24 days without CBD, to establish a baseline for non-selective mutations in the growth conditions described.
Six wells were used as a positive growth controls, and six as negative growth controls with uninoculated media.
Subsequent passages were inoculated from well H7. The bacterial growth in H7 was resuspended by pipetting, then plates were read for optical density by spectrophotometer (Biotek Epoch) at 600 nm (OD600). The OD600 was used to calculate the dilution of cells to a density of 10^6 CFU/mL. Bacteria were diluted in CaMHB and 50 μL was added to each well of the next passage.

[3] = tested on: A. acidipropionici ATCC 25562; assay: Anaerobic MIC micro-broth dilution; assay type: cell-based, Acidipropionibacterium acidipropionici; conditions: A. acidipropionici ATCC 25562, anaerobic chamber, BHI, 48 h
[4] = tested on: 132 strains of Staphylococcus aureus (106 MRSA and 26 MSSA strains); assay: MIC50/MIC90 micro-broth dilution, all strains
[5] = tested on: Staphylococcus epidermidis NRS 60; assay: Expanded panel MIC micro-broth dilution; assay type: cell-based; conditions: CaMHB
Protocol: (§1) The collaborator supplied sample as dry material. Angela Kavanagh prepared a stock solution at 10 mg/mL in neat DMSO. The highest concentration tested in the assay was 64 μg/mL for bacteria and 128 μg/mL for fungi. 2% DMSO was the final concentration using 1/20 dilution to achieve these concentrations.
(§2) The compound was serially diluted in Cation-adjusted Mueller Hinton Broth (CaMHB; BD, Cat. No. 212322) two-fold across the wells of polystyrene (PS) 96-well plates (Corning; Cat. No. 3370), plated in duplicate. All plates had flat bottom wells and were covered with low-evaporation lids.
(§3) Bacteria were cultured in CaMHB at 37° C. overnight, then diluted 40-fold and incubated at 37° C. for a further 2-3 h. The resultant mid-log phase cultures were diluted in CaMHB and added to each well of the compound-containing 96-well plates to give a final cell density of 5×10^5 CFU/mL, and a final compound concentration range of 0.03-64 μg/mL. The plates were covered and incubated at 37° C. for 20 h.
(§4) Inhibition of bacterial growth was determined visually, where the MIC was recorded as the lowest compound concentration with no visible growth.

[6] = tested on: Staphylococcus aureus ATCC 700699, NRS 1; assay: Expanded panel MIC micro-broth dilution; assay type: cell-based; conditions: CaMHB, read-out: Cannabidiol MIC (Batch 1)
Protocol: as §1, §2, §3, §4

[7] = tested on: Streptococcus pneumoniae ATCC 33400; assay: Expanded panel MIC micro-broth dilution; assay type: cell-based; conditions: CaMHB
Protocol: as §1, §2, §3, §4

Kocuria rosea ATCC 31251 = assay: Expanded panel MIC micro-broth dilution; assay type: cell-based; conditions: CaMHB
Protocol: as §1, §2, §3, §4

[8] = tested on: Enterococcus faecalis ATCC 29212; assay: Expanded panel MIC micro-broth dilution; assay type: cell-based; conditions: ATCC29212, CaMHB, read-out: Cannabidiol MIC (Batch 1)
Protocol: as §1, §2, §3, §4

[9] = tested on: Bacillus cereus ATCC 11778; assay: Expanded panel MIC micro-broth dilution; assay type: cell-based; conditions: CaMHB
Protocol: as §1, §2, §3, §4

[10] = tested on: Bacillus megaterium ATCC 13632; assay: Expanded panel MIC micro-broth dilution; assay type: cell-based; conditions: CaMHB
Protocol: as §1, §2, §3, §4

[11] = tested on: Streptococcus pneumoniae ATCC 700677; assay: Expanded panel MIC micro-broth dilution; assay type: cell-based; conditions: ATCC700677, CaMHB, read-out: Cannabidiol MIC (Batch 1)
Protocol: as §1, §2, §3, §4

[12] = tested on: Staphylococcus epidermidis ATCC 14990; assay: Expanded panel MIC micro-broth dilution; assay type: cell-based; conditions: CaMHB
Protocol: as §1, §2, §3, §4

[13] = tested on: Bacillus subtilis ATCC 6633; assay: Expanded panel MIC micro-broth dilution; assay type: cell-based; conditions: CaMHB
Protocol: as §1, §2, §3, §4

[14] = tested on: S. aureus MSSA (26 strains); assay: MIC50/MIC90 micro-broth dilution, MSSA strains; conditions: Staphylococcus aureus, MSSA

In the case of `C=C(C)C1CCC(C)=CC1c1c(O)cc(CCCCC)cc1O` (stereo not shown) [Cannabidiol, 2-[3-methyl-6-(1-methylethenyl)-2-cyclohexen-1-yl]-5-pentyl-1,3-benzenediol], the MIC ([1]; ATCC43300, CAMHB, read-out: Broth MIC) is reported as 1 µg/mL (≈ 3.18 µM), the MIC ([1]; ATCC43300, TSB + 5% Glucose, read-out: Broth MIC) is reported as 0.5 µg/mL and the MIC ([1]; ATCC 43300 / MRSA, same strain of MRSA, read-out: standard vegetative cell MIC) is reported as 0.5 to 1 µg/mL (≈ 1.59 to 3.18 µM). The MIC ([2]; 216 h, read-out: measured MIC on Day 9) was 1 µg/mL (≈ 3.18 µM), the MIC ([2]; 312 h, read-out: MIC of replicate 1 at day 13) was > 7 µg/mL and the MIC ([2]; 432 h, read-out: MIC of replicate 1 by day 18) was > 128 µg/mL. For the same molecule, the MIC ([2]; 480 h, read-out: MIC through the 20 days of assay) was 2 to 4 µg/mL (≈ 6.36 to 12.7 µM), the MIC ([2]; read-out: MIC of replicates 2 and 8 on Days 20 and 21) was 6 to 16 µg/mL and the “MIC of replicate 1 before the increase” value ([2]; replicate 1) was 3.5 µg/mL. The MIC [3] was “active”, the MIC ([3]; Acidipropionibacterium acidipropionici, ATCC25562, read-out: MIC) was 0.5 µg/mL (≈ 1.59 µM) and the “Staphylococcus aureus spp. MIC distribution, number of strains” value ([4]; MIC 0.015 μg/mL) was 0. For the same molecule, the “Staphylococcus aureus spp. MIC distribution, number of strains” value ([4]; MIC 0.03 μg/mL) was 0, the “Staphylococcus aureus spp. MIC distribution, number of strains” value ([4]; MIC 0.06 μg/mL) was 0 and the “Staphylococcus aureus spp. MIC distribution, number of strains” value ([4]; MIC 0.5 μg/mL) was 0. For the same molecule, the “Staphylococcus aureus spp. MIC distribution, number of strains” value ([4]; MIC 1 μg/mL) was 6, the “Staphylococcus aureus spp. MIC distribution, number of strains” value ([4]; MIC 2 μg/mL) was 106 and the “Staphylococcus aureus spp. MIC distribution, number of strains” value ([4]; MIC 4 μg/mL) was 18. For the same molecule, the “Staphylococcus aureus spp. MIC distribution, number of strains” value ([4]; MIC 8 μg/mL) was 1, the “Staphylococcus aureus spp. MIC distribution, number of strains” value ([4]; MIC 32 μg/mL) was 0 and the MIC range ([4]; S. aureus spp. ALL) was 0.25 to 8 µg/mL. It also gave an MIC50 ([4]; Staphylococcus aureus) of 2 µg/mL (≈ 6.36 µM), an MIC90 ([4]; Staphylococcus aureus) of 4 µg/mL (≈ 12.7 µM) and an MIC ([4]; Staphylococcus aureus, MRSA|MSSA, read-out: MIC across the 132 strains tested) of 2 to 4 µg/mL (≈ 6.36 to 12.7 µM). The “Cannabidiol MIC (Batch 1)” value ([5]; Staphylococcus epidermidis NRS 60) was 4 µg/mL and 8 µg/mL, the MIC ([5]; Staphylococcus epidermidis, NRS60, Staphylococcus epidermidis NRS 60, read-out: Cannabidiol MIC (Batch 1)) was 4 to 8 µg/mL (≈ 12.7 to 25.4 µM) and the MIC [6] was 4 µg/mL (≈ 12.7 µM). The “Cannabidiol MIC (Batch 1)” value ([7]; Streptococcus pneumoniae ATCC 33400) was 2 µg/mL, the MIC ([7]; Streptococcus pneumoniae, ATCC33400, Streptococcus pneumoniae ATCC 33400, read-out: Cannabidiol MIC (Batch 1)) was 1 µg/mL (≈ 3.18 µM) and the “Cannabidiol MIC (Batch 1)” value (Kocuria rosea ATCC 31251; Kocuria rosea ATCC 31251) was 2 µg/mL. The MIC (Kocuria rosea ATCC 31251; Kocuria rosea, ATCC31251, Kocuria rosea ATCC 31251, read-out: Cannabidiol MIC (Batch 1)) was 1 µg/mL (≈ 3.18 µM), the MIC [8] was 2 µg/mL (≈ 6.36 µM) and the “Cannabidiol MIC (Batch 1)” value ([9]; Bacillus cereus ATCC 11778) was 2 µg/mL. For the same molecule, the MIC ([9]; Bacillus cereus, ATCC11778, Bacillus cereus ATCC 11778, read-out: Cannabidiol MIC (Batch 1)) was 1 µg/mL (≈ 3.18 µM), the “Cannabidiol MIC (Batch 1)” value ([10]; Bacillus megaterium ATCC 13632) was 2 µg/mL and the MIC ([10]; Priestia megaterium, ATCC13632, Bacillus megaterium ATCC 13632, read-out: Cannabidiol MIC (Batch 1)) was 1 µg/mL (≈ 3.18 µM). The MIC [11] was 4 µg/mL (≈ 12.7 µM), the “Cannabidiol MIC (Batch 1)” value ([12]; Staphylococcus epidermidis ATCC 14990) was 2 µg/mL and the MIC ([12]; Staphylococcus epidermidis, ATCC14990, Staphylococcus epidermidis ATCC 14990, read-out: Cannabidiol MIC (Batch 1)) was 1 µg/mL (≈ 3.18 µM). The “Cannabidiol MIC (Batch 1)” value ([13]; Bacillus subtilis ATCC 6633) was 2 µg/mL, the MIC ([13]; Bacillus subtilis, ATCC6633, Bacillus subtilis ATCC 6633, read-out: Cannabidiol MIC (Batch 1)) was 1 µg/mL (≈ 3.18 µM) and the MIC50 [14] was 2 µg/mL (≈ 6.36 µM). The MIC90 [14] was 2 µg/mL (≈ 6.36 µM).
